Assay results: patent US5428175A (priority 1993, dated 1995)
≈ marks a conversion by molar mass, not a printed value.

Experiments:
[1] = tested on: Human epidermoid carcinoma (oral) cell KB; assay: Cytocidal activity of HS-1 for KB cells (MTT); assay type: cell-based; conditions: 72 hours, absorption at 540 nm, read-out: TC50 (the source's name)
Experimental: Human epidermoid carcinoma (oral) cell KB was inoculated into 96-well microplates (4000 cells/200 μl/well) and cultured in DMEM medium (containing 5% FCS) in 5% CO2 at 37° C. for 24 hours. 5 μl of HS-1 solutions in DMSO at various HS-1 concentrations were added to above culture. After the culture incubated for 72 hours, 10 μl of a 2.5 mg/ml MTT solution was added and incubator was continued for a further 4 hours, thus producing formazan. After the addition of 200 μl of DMSO, the absorption at 540 nm was measured using an imunoreader. The cytocidal activity of HS-1 for KB cells was determined from the ratio of the absorption of the compound to the absorption of the control.

Bacillus subtilis rec + = assay: Antimicrobial activity, paper disc inhibition zone; assay type: cell-based; conditions: 40 μg/disc, 8 mm paper disc; Bacillus subtilis rec + (wild strain)
Experimental: (§1) Antimicrobial activity of HS-1 was examined using eleven kinds of bacteria, fungi, and yeasts using paper discs with a diameter of 8 mm, at a concentration of 40 μg/disc. The results are shown in Table 3, wherein the antimicrobial activity of HS-1 is indicated as the diameter of the inhibition zone.

Bacillus subtilis rec - = assay: Antimicrobial activity, paper disc inhibition zone; assay type: cell-based; conditions: 40 μg/disc, 8 mm paper disc; Bacillus subtilis rec - (repair activity defective strain)
Experimental: as §1

[2] = tested on: Botrytis cinerea IFO 5365; assay: Antimicrobial activity, paper disc inhibition zone; assay type: cell-based; conditions: IFO5365, 40 μg/disc, 8 mm paper disc
Experimental: as §1

Escherichia coli AB 1157 = assay: Antimicrobial activity, paper disc inhibition zone; assay type: cell-based; conditions: AB1157, 40 μg/disc, 8 mm paper disc
Experimental: as §1

Escherichia coli BE 1196 = assay: Antimicrobial activity, paper disc inhibition zone; assay type: cell-based; conditions: BE1196, 40 μg/disc, 8 mm paper disc
Experimental: as §1

[3] = tested on: Mycobacterium phlei IFO 11158; assay: Antimicrobial activity, paper disc inhibition zone; assay type: cell-based; conditions: Mycolicibacterium phlei, IFO11158, 40 μg/disc, 8 mm paper disc
Experimental: as §1

[4] = tested on: Pseudomonas aeruginosa N-10 (L-form); assay: Antimicrobial activity, paper disc inhibition zone; assay type: cell-based; conditions: 40 μg/disc, 8 mm paper disc
Experimental: as §1

[5] = tested on: Schizosaccharomyces pombe IFO 0638; assay: Antimicrobial activity, paper disc inhibition zone; assay type: cell-based; conditions: IFO0638, 40 μg/disc, 8 mm paper disc
Experimental: as §1

[6] = tested on: Staphylococcus aureus IFO 12732; assay: Antimicrobial activity, paper disc inhibition zone; assay type: cell-based; conditions: IFO12732, 40 μg/disc, 8 mm paper disc
Experimental: as §1

[7] = tested on: Xanthomonas citri IFO 3781; assay: Antimicrobial activity, paper disc inhibition zone; assay type: cell-based; conditions: IFO3781, 40 μg/disc, 8 mm paper disc
Experimental: as §1

[8] = tested on: Xanthomonas oryzae IFO 331.2; assay: microbe, parasite or virus in culture; assay type: cell-based; conditions: IFO331, read-out: Inhibition zone
Solubility = assay type: physicochemical
[9] = known from the literature; cited from earlier work

SMILES | IC50 [1] [µg/mL] | zone of inhibition at 40 µg/disc (Bacillus subtilis rec +) [mm] | zone of inhibition at 40 µg/disc (Bacillus subtilis rec -) [mm] | zone of inhibition at 40 µg/disc [2] [mm] | zone of inhibition at 40 µg/disc (Escherichia coli AB 1157) [mm] | zone of inhibition at 40 µg/disc (Escherichia coli BE 1196) [mm] | zone of inhibition at 40 µg/disc [3] [mm] | zone of inhibition at 40 µg/disc [4] [mm] | zone of inhibition at 40 µg/disc [5] [mm] | zone of inhibition at 40 µg/disc [6] [mm] | zone of inhibition at 40 µg/disc [7] [mm] | zone of inhibition at 40 µg/disc [8] [mm] | Solubility (Solubility; in dimethyl sulfoxide) | Solubility (Solubility; in methanol) | Solubility (Solubility; in water) | antimicrobial and antiprotozoal activities [9]
O=C1N=C(c2c[nH]c3ccccc23)C=C1c1c[nH]c2ccccc12 [HS-1] | 0.68 (≈ 2.18 µM) | 0 | < 10 | 0 | 0 | 0 | 0 | < 10 | 0 | 0 | 0 | 11.9 | Readily soluble | scarcely soluble | insoluble | 
O=C1NC(c2c[nH]c3ccc(O)cc23)=C/C1=C1\C(=O)Nc2ccccc21 [violacein] |  |  |  |  |  |  |  |  |  |  |  |  |  |  |  | known to exhibit antimicrobial and antiprotozoal activities
